Source: patent US20030157715A1, “Modulation of chromosome function by chromatin remodeling agents” (priority 2000, published 2003)
pKd: −log10 of the molar value.

How the values were obtained:
[1] = target: W9 probe (tandem repeats of an oligonucleotide with a 9 bp AT-tract); assay: DNase I footprinting on probe W9; assay type: binding; settings: apparent binding affinity, DNase I footprinting, probe W9; read-out: Kdapp W9
Source text: DNase I cleavage pattern in the presence of P9 and P7. Ligand concentrations are indicated at the top of each lane. The position of each of the AT-tracts is indicated by square brackets. […] This probe is composed of head-to-tail tandem repeats of an oligonucleotide with a 9 bp AT-tract.
(§1) Synthetic oligonucleotides […] and […] were hybridized to obtain the W9 probe, oligomerized by ligation and digested with BamHI and BglII to obtain different tandem repeats. The following oligonucleotides were prepared identically: GAF31 is composed of the oligonucleotides […] and […] and, BrownI of oligonucleotides […] and […]. Fragments were purified on low-melt agarose gels and then cloned into a modified pSP64 vector, cut by BamHI and BglII. End-labeling was carried out following digestion with HindIII and a fill-in reaction with Klenow DNA polymerase. The labeled plasmid was cut with PvuII and the target fragments purified from low-melting agarose gels. The 657 bp EcoR1/Hinf1 fragment of the Drosophila histone SAR was cloned into the SmaI site of the modified pSP64 plasmid. This SAR probe was end-labeled following-digestion with EcoR1, then cut with ClaI and the resulting 347 bp fragment purified from low-melting agarose gels.
(§2) All reactions were performed in a total volume of 40 μl. A polyamide stock solution or buffer (for reference lanes) was added to an assay buffer containing 20 kcpm radiolabeled DNA, affording final concentrations of 10 mM Tris-HCl (pH 7.4), 10 mM KCl, 10 MM MgCl, 5 mM CaCl2, 0.5 mM EDTA, 0.5 mM EGTA, 1 mM DTT and 0.1% digitonine. The solutions were allowed to equilibrate for at least 2 h at room temperature. Footprinting reactions were initiated by the addition of 2 μl of a DNase stock solution (containing −100 μg DNase I in buffer) and allowed to proceed for 2 min at room temperature. The reactions were stopped by addition of 10 μl of a solution containing 1.25 M NaCl, 100 mM EDTA. Next, 5 μl of a 1% SDS solution was added, followed by 2 μl of a solution containing 1 μg poly(dA-dT), 1 μg salmon sperm DNA and 10 μg glycogen and the DNA was ethanol precipitated (20 min at −20 C.). The reactions were resuspended in 4 μl of 80% formamide loading buffer, denatured 10 min at 85 C., cooled on ice and electrophoresed on 8% polyacrylamide denaturing gels (5% cross-link, 8 M urea) at 30 W for 1 h. The gels were dried and exposed o/n at −70 C.

Drosophila histone SAR = assay: DNase I footprinting on SAR probe; assay type: binding; settings: for Ratio: Kdapp W9 / Kdapp SAR (SAR specificity factor); for pKd: apparent binding affinity, DNase I footprinting, SAR probe, read-out: Kdapp SAR
Description: as §1, §2

[2] = test system: satellite III chromatin in Kc nuclei; settings: previously reported (Kas and Laemmli, 1992); cited from earlier work
[3] = test system: DNA satellites in Kc nuclei and polytene chromosomes; assay: Staining of Kc nuclei and polytene chromosomes with fluorescent polyamides; design: species or system Drosophila; settings: isolated Kc nuclei and polytene chromosomes
Description: Kc Drosophila nuclei were isolated (Mirkovitch et al., 1984), diluted into XBE (10 mM Hepes, pH 7.7, 2 mM MgCl2, 0.1 mM CaCl2, 100 mM KCl, 5 mM EGTA and 50 mM sucrose), fixed with 0.8% fresh paraformaldehyde for 15 minutes and spun onto a round coverslip (10 mm) as described previously (Boy de la Tour and Laemmli, 1988). For washing and staining, coverslips were floated on 60 μl drops of XBE deposited on […]. After centrifugation coverslips were washed twice (1 minute), stained for 60 minutes, washed four times (1 minute) and then mounted in PPDI (5 mM Hepes pH 7.8, 100 mM NaCl, 20 mM KCl, 1 mM EGTA, 10 mM Mg SO4, 2 mM CaCl2, 78% glycerol, 1 mgr/ml paraphenylene diamine). FIG. (4) panel A was stained with 0.5 μM […] and 15 μM ethidium bromide (EB). Kc nuclei and polytene chromosomes were stained with fluorescent polyamides as described elsewhere (Janssen et al., 2000). For immunofluorescence, polytene glands were carefully dissected from bw^D or Canton S. flies in 1× PBS as described (Ashburner, 1989) Whole glands in sol P (1×PBS supplemented with 1 mM MgCl2 and 0.1% digitonin) were then incubated for 60 minutes with various concentrations of either P31, P9 or no compound at room temperature. P31 (not P9) induced redistribution of GAF during this incubation step. […] Images were recorded with a wide field, deconvolution-type imaging system from DeltaVision.

| Compound | pKd [1] | Ratio (Drosophila histone SAR) | pKd (Drosophila histone SAR) | chromatin opening at satellite III by distamycin [2] | increase of SAR specificity upon fluorescein tagging (Drosophila histone SAR; tagged versus untagged compound) | main nuclear targets by epifluorescence staining [3] |
| --- | --- | --- | --- | --- | --- | --- |
| CN(C)CCCNC(=O)CCNC(=O)c1cc(NC(=O)c2cc(NC(=O)c3cc(NC(=O)c4cc(NC(=O)c5cccn5C)cn4C)cn3C)cn2C)cn1C [Compound P10, (Py)5βDp] | 7.10 | 2.3 | 7.46 |  |  |  |
| CN(C)CCCNC(=O)CCNC(=O)c1cc(NC(=O)c2cc(NC(=O)c3cc(NC(=O)CCNC(=O)c4cc(NC(=O)c5cc(NC(=O)c6cc(NC(=O)CCNC(=O)c7cc(NC(=O)c8cc(NC(=O)c9cccn9C)cn8C)cn7C)cn6C)cn5C)cn4C)cn3C)cn2C)cn1C [Compound P13, ((Py)3β)3Dp] | 9.00 | 0.8 | 8.90 |  |  |  |
| Cn1cc(NC(=O)c2cc(NC(=O)c3cc(NC=O)cn3C)cn2C)cc1C(=O)NCCC(=N)N [distamycin] |  |  |  | causes opening of the chromatin fiber |  |  |
| (Py)3β(Py)3βD* [Compound P9F] | 8.40 | 4 | 9.00 |  | about 4 fold | targets primarily satellite I and III |
| F*γ(Py)5βDp [Compound P10F] | 5.52 | 2.5 | 5.92 |  |  |  |
